In PMC6010916, “Safety and pharmacokinetics of veliparib extended‐release in patients with advanced solid tumors: a phase I study” (Cancer Medicine, 2018):

Test: Safety: treatment-emergent adverse events (NCI CTCAE version 4.0)
Assay type: in vivo, human
[1] = All cycles, All patients (N = 71)
[2] = All cycles, Part 1, extension (n = 24)
[3] = Cycle 1, Part 1, extension (n = 24)

Description: Adverse event (AE) severity was assessed according to the National Cancer Institute Common Terminology Criteria for Adverse Events (NCI CTCAE) version 4.0. Tumor evaluations were performed at screening, every 8 weeks after the first administration of study drug, and at the final visit using radiographic measurements from computed tomography or magnetic resonance imaging. Objective tumor responses were evaluated using RECIST version 1.1 criteria. Patients who received one or more doses of veliparib were included in the PK and safety analyses, as well as for evaluation of time to disease progression (TTP). Patients with one or more measurable lesion at baseline were included in the analysis of objective responses.

With `C[C@]1(c2nc3c(C(N)=O)cccc3[nH]2)CCCN1` [veliparib] the “Any SAE” value [1] was 20 (28.2) n (%), the “SAE leading to discontinuation” value [1] was 8 (11.3) n (%) and the “SAE leading to dose interruption” value [1] was 14 (19.7) n (%). The “SAE leading to dose reduction” value [1] was 1 (1.4) n (%), the “TEAE: Any AE” value [1] was 70 (98.6) n (%) and the “TEAE: At least possibly related to study drug” value (shortened to “TEAE: At least possibly related”) [1] was 60 (84.5) n (%). The “TEAE: NCI CTCAE grade 3 or 4” value [1] was 28 (39.4) n (%), the “Any SAE” value [2] was 5 (20.8) n (%) and the “SAE leading to discontinuation” value [2] was 3 (12.5) n (%). The “SAE leading to dose interruption” value [2] was 4 (16.7) n (%), the “SAE leading to dose reduction” value [2] was 0 n (%) and the “TEAE: Abdominal pain” value [2] was 3 (12.5) n (%). The “TEAE: Anemia” value [2] was 3 (12.5) n (%), the “TEAE: Any AE” value [2] was 23 (95.8) n (%) and the “TEAE: At least possibly related” value [2] was 17 (70.8) n (%). The “TEAE: Constipation” value [2] was 5 (20.8) n (%), the “TEAE: Decreased appetite” value [2] was 1 (4.2) n (%) and the “TEAE: Diarrhea” value [2] was 5 (20.8) n (%). The “TEAE: Fatigue” value [2] was 7 (29.2) n (%), the “TEAE: NCI CTCAE grade 3 or 4” value [2] was 7 (29.2) n (%) and the “TEAE: Nausea, Grade 1” value [2] was 11 (45.8) n (%). The “TEAE: Nausea, Grade 2” value [2] was 3 (12.5) n (%), the “TEAE: Nausea, Grade 3” value [2] was 0 n (%) and the “TEAE: Urinary tract infection” value [2] was 7 (29.2) n (%). The “TEAE: Vomiting” value [2] was 11 (45.8) n (%), the “TEAE: Vomiting, Grade 1” value [2] was 11 (45.8) n (%) and the “TEAE: Vomiting, Grade 2” value [2] was 0 n (%). For the same molecule, the “TEAE: Vomiting, Grade 3” value [2] was 0 n (%), the “Any SAE” value (All cycles, Part 2 (n = 35)) was 11 (31.4) n (%) and the “SAE leading to discontinuation” value (All cycles, Part 2 (n = 35)) was 4 (11.4) n (%). The “SAE leading to dose interruption” value (All cycles, Part 2 (n = 35)) was 6 (17.1) n (%), the “SAE leading to dose reduction” value (All cycles, Part 2 (n = 35)) was 1 (2.9) n (%) and the “TEAE: Abdominal pain” value (All cycles, Part 2 (n = 35)) was 7 (20.0) n (%). For the same molecule, the “TEAE: Anemia” value (All cycles, Part 2 (n = 35)) was 10 (28.6) n (%), the “TEAE: Any AE” value (All cycles, Part 2 (n = 35)) was 35 (100) n (%) and the “TEAE: At least possibly related” value (All cycles, Part 2 (n = 35)) was 33 (94.3) n (%). The “TEAE: Constipation” value (All cycles, Part 2 (n = 35)) was 14 (40.0) n (%), the “TEAE: Decreased appetite” value (All cycles, Part 2 (n = 35)) was 11 (31.4) n (%) and the “TEAE: Diarrhea” value (All cycles, Part 2 (n = 35)) was 10 (28.6) n (%). For the same molecule, the “TEAE: Fatigue” value (All cycles, Part 2 (n = 35)) was 14 (40.0) n (%), the “TEAE: NCI CTCAE grade 3 or 4” value (All cycles, Part 2 (n = 35)) was 17 (48.6) n (%) and the “TEAE: Nausea” value (All cycles, Part 2 (n = 35)) was 31 (88.6) n (%). The “TEAE: Nausea, Grade 1” value (All cycles, Part 2 (n = 35)) was 24 (68.6) n (%), the “TEAE: Nausea, Grade 2” value (All cycles, Part 2 (n = 35)) was 5 (14.3) n (%) and the “TEAE: Nausea, Grade 3” value (All cycles, Part 2 (n = 35)) was 2 (5.7) n (%). The “TEAE: Urinary tract infection” value (All cycles, Part 2 (n = 35)) was 5 (14.3) n (%), the “TEAE: Vomiting” value (All cycles, Part 2 (n = 35)) was 17 (48.6) n (%) and the “TEAE: Vomiting, Grade 1” value (All cycles, Part 2 (n = 35)) was 13 (37.1) n (%). For the same molecule, the “TEAE: Vomiting, Grade 2” value (All cycles, Part 2 (n = 35)) was 3 (8.6) n (%), the “TEAE: Vomiting, Grade 3” value (All cycles, Part 2 (n = 35)) was 1 (2.9) n (%) and the “Any SAE” value (All cycles, Part 3 (n = 12)) was 4 (33.3) n (%). For the same molecule, the “SAE leading to discontinuation” value (All cycles, Part 3 (n = 12)) was 1 (8.3) n (%), the “SAE leading to dose interruption” value (All cycles, Part 3 (n = 12)) was 4 (33.3) n (%) and the “SAE leading to dose reduction” value (All cycles, Part 3 (n = 12)) was 0 n (%). The “TEAE: Abdominal pain” value (All cycles, Part 3 (n = 12)) was 4 (33.3) n (%), the “TEAE: Anemia” value (All cycles, Part 3 (n = 12)) was 2 (16.7) n (%) and the “TEAE: Any AE” value (All cycles, Part 3 (n = 12)) was 12 (100) n (%). For the same molecule, the “TEAE: At least possibly related” value (All cycles, Part 3 (n = 12)) was 10 (83.3) n (%), the “TEAE: Constipation” value (All cycles, Part 3 (n = 12)) was 4 (33.3) n (%) and the “TEAE: Decreased appetite” value (All cycles, Part 3 (n = 12)) was 2 (16.7) n (%). The “TEAE: Diarrhea” value (All cycles, Part 3 (n = 12)) was 6 (50.0) n (%), the “TEAE: Fatigue” value (All cycles, Part 3 (n = 12)) was 2 (16.7) n (%) and the “TEAE: NCI CTCAE grade 3 or 4” value (All cycles, Part 3 (n = 12)) was 4 (33.3) n (%). The “TEAE: Nausea” value (All cycles, Part 3 (n = 12)) was 9 (75.0) n (%), the “TEAE: Nausea, Grade 1” value (All cycles, Part 3 (n = 12)) was 6 (50.0) n (%) and the “TEAE: Nausea, Grade 2” value (All cycles, Part 3 (n = 12)) was 2 (16.7) n (%). The “TEAE: Nausea, Grade 3” value (All cycles, Part 3 (n = 12)) was 1 (8.3) n (%), the “TEAE: Urinary tract infection” value (All cycles, Part 3 (n = 12)) was 3 (25.0) n (%) and the “TEAE: Vomiting” value (All cycles, Part 3 (n = 12)) was 7 (58.3) n (%). For the same molecule, the “TEAE: Vomiting, Grade 1” value (All cycles, Part 3 (n = 12)) was 4 (33.3) n (%), the “TEAE: Vomiting, Grade 2” value (All cycles, Part 3 (n = 12)) was 2 (16.7) n (%) and the “TEAE: Vomiting, Grade 3” value (All cycles, Part 3 (n = 12)) was 1 (8.3) n (%). For the same molecule, the “Any SAE” value (Cycle 1, All patients (N = 71)) was 10 (14.1) n (%), the “SAE leading to discontinuation” value (Cycle 1, All patients (N = 71)) was 4 (5.6) n (%) and the “SAE leading to dose interruption” value (Cycle 1, All patients (N = 71)) was 6 (8.5) n (%). The “SAE leading to dose reduction” value (Cycle 1, All patients (N = 71)) was 1 (1.4) n (%), the “TEAE: Any AE” value (Cycle 1, All patients (N = 71)) was 67 (94.4) n (%) and the “TEAE: At least possibly related” value (Cycle 1, All patients (N = 71)) was 50 (70.4) n (%). For the same molecule, the “TEAE: NCI CTCAE grade 3 or 4” value (Cycle 1, All patients (N = 71)) was 13 (18.3) n (%), the “Any SAE” value [3] was 4 (16.7) n (%) and the “SAE leading to discontinuation” value [3] was 3 (12.5) n (%). For the same molecule, the “SAE leading to dose interruption” value [3] was 2 (8.3) n (%), the “SAE leading to dose reduction” value [3] was 0 n (%) and the “TEAE: Any AE” value [3] was 23 (95.8) n (%). For the same molecule, the “TEAE: At least possibly related” value [3] was 14 (58.3) n (%), the “TEAE: NCI CTCAE grade 3 or 4” value [3] was 4 (16.7) n (%) and the “Any SAE” value (Cycle 1, Part 2 (n = 35)) was 5 (14.3) n (%). For the same molecule, the “SAE leading to discontinuation” value (Cycle 1, Part 2 (n = 35)) was 1 (2.9) n (%), the “SAE leading to dose interruption” value (Cycle 1, Part 2 (n = 35)) was 3 (8.6) n (%) and the “SAE leading to dose reduction” value (Cycle 1, Part 2 (n = 35)) was 1 (2.9) n (%). The “TEAE: Any AE” value (Cycle 1, Part 2 (n = 35)) was 34 (97.1) n (%), the “TEAE: At least possibly related” value (Cycle 1, Part 2 (n = 35)) was 29 (82.9) n (%) and the “TEAE: NCI CTCAE grade 3 or 4” value (Cycle 1, Part 2 (n = 35)) was 8 (22.9) n (%). The “Any SAE” value (Cycle 1, Part 3 (n = 12)) was 1 (8.3) n (%), the “SAE leading to discontinuation” value (Cycle 1, Part 3 (n = 12)) was 0 n (%) and the “SAE leading to dose interruption” value (Cycle 1, Part 3 (n = 12)) was 1 (8.3) n (%). The “SAE leading to dose reduction” value (Cycle 1, Part 3 (n = 12)) was 0 n (%).
